For this series the following is noted: 101.33 kPa, Liquid, Vibrating tube method.

± gives the expanded uncertainty stated by the source.

Here are results for two compounds from the NIST ThermoML archive (doi:10.1021/acs.jced.6b00751).

By mass density is commonly meant the mass of a sample divided by its volume.

For the compound `CCOS(=O)(=O)[O-].CCn1cc[n+](C)c1` [1-ethyl-3-methylimidazolium ethyl sulfate], the mass density is, setting by setting: (298.15 K) 1234.1 ± 18 kg/m3; (313.15 K) 1219.1 ± 18 kg/m3; (333.15 K) 1199.1 ± 27 kg/m3; (353.15 K) 1170.4 ± 39 kg/m3.
With `CCCCn1cc[n+](C)c1.F[P-](F)(F)(F)(F)F` [1-butyl-3-methylimidazolium hexafluorophosphate], the mass density reads like this: (298.15 K) 1369.9 ± 18 kg/m3; (313.15 K) 1350.4 ± 26 kg/m3; (333.15 K) 1325.2 ± 21 kg/m3; (353.15 K) 1288.4 ± 39 kg/m3.
